Source: ChEMBL document CHEMBL4219147, “Design, synthesis, and structure-activity relationships of novel 4,7,12,12a-tetrahydro-5H-thieno[3',2':3,4]pyrido[1,2-b]isoquinoline and 5,8,12,12a-tetrahydro-6H-thieno[2',3':4,5]pyrido[2,1-a]isoquinoline derivatives as cellular activators of adenosine 5'-monophosphate-activated protein kinase …” (Bioorg Med Chem, 2018)
Activity calls are given as the source filed them. The rule behind the calls is not given here.

How the values were obtained:
[1] = species on record: Rattus norvegicus; test: Activation of AMPK in Sprague-Dawley rat primary hepatocytes assessed as inhibition of gluconeogenesis by measuring glucose production at 5 uM after 6 hrs by colorimetric assay (reference value: 100 +/- 3.5%); set-up: scale not given: the % may be the effect or the level left
[2] = test system: L6; test: Inhibition of mitochondrial respiratory complex 1 in differentiated Sprague-Dawley rat L6 myotube cells assessed as mitochondrial membrane potential at 10 uM after 40 to 60 mins by JC-1 staining based fluorescence assay (reference value: 100 +/- 1.6%); type: cell-based; set-up: scale not given: the % may be the effect or the level left
[3] = test system: L6; test: Inhibition of mitochondrial respiratory complex 1 in differentiated Sprague-Dawley rat L6 myotube cells assessed as mitochondrial membrane potential at 5 uM after 40 to 60 mins by JC-1 staining based fluorescence assay (reference value: 100 +/- 1.6%); type: cell-based; set-up: scale not given: the % may be the effect or the level left
[4] = test system: L6; test: Upregulation of AMPKalpha phosphorylation at Thr172 residues in Sprague-Dawley rat L6 myotube cells at 10 uM after 1 hr by Western blot analysis; type: cell-based
[5] = test system: L6; test: Inhibition of mitochondrial respiratory complex 1 in differentiated Sprague-Dawley rat L6 myotube cells assessed as mitochondrial membrane potential at 20 uM after 40 to 60 mins by JC-1 staining based fluorescence assay (reference value: 100 +/- 1.6%); type: cell-based; set-up: scale not given: the % may be the effect or the level left
[6] = test system: L6; test: Activation of AMPK in differentiated Sprague-Dawley rat L6 myotube cells assessed as glucose consumption at 10 uM after 12 hrs by colorimetric assay (reference value: 100 +/- 1.8%); type: cell-based
[7] = test system: L6; test: Activation of AMPK in Sprague-Dawley rat L6 myotube cells assessed as increase in acetyl-CoA carboxylase phosphorylation at Ser79 residues at 10 uM after 1 hr by Western blot analysis; type: cell-based
[8] = Cytotoxicity against Sprague-Dawley rat L6 cells assessed as cell viability at 10 uM after 12 hrs by SRB assay (reference value: 100 +/- 1.8%); type: cell-based; settings: read-out: Activity
[9] = test system: L6; test: Activation of AMPK in differentiated Sprague-Dawley rat L6 myotube cells assessed as increase in glucose consumption at 10 uM after 12 hrs by colorimetric assay relative to control; type: cell-based
[10] = Cytotoxicity against Sprague-Dawley rat L6 cells assessed as cell viability at 5 uM after 12 hrs by SRB assay (reference value: 100 +/- 1.8%); type: cell-based; settings: read-out: Activity
[11] = Cytotoxicity against Sprague-Dawley rat L6 cells assessed as cell viability at 20 uM after 12 hrs by SRB assay (reference value: 100 +/- 1.8%); type: cell-based; settings: read-out: Activity
[12] = species on record: Rattus norvegicus; test: Activation of AMPK in Sprague-Dawley rat primary hepatocytes assessed as inhibition of gluconeogenesis by measuring glucose production at 10 uM after 6 hrs by colorimetric assay (reference value: 100 +/- 3.5%); set-up: scale not given: the % may be the effect or the level left
[13] = test system: L6; test: Activation of AMPK in differentiated Sprague-Dawley rat L6 myotube cells assessed as glucose consumption at 20 uM after 12 hrs by colorimetric assay (reference value: 100 +/- 1.8%); type: cell-based
[14] = test system: L6; test: Upregulation of AMPKalpha phosphorylation at Thr172 residues in Sprague-Dawley rat L6 myotube cells at 5 to 20 uM after 1 hr by Western blot analysis; type: cell-based
[15] = test system: L6; test: Activation of AMPK in Sprague-Dawley rat L6 myotube cells assessed as increase in acetyl-CoA carboxylase phosphorylation at Ser79 residues at 5 to 20 uM after 1 hr by Western blot analysis; type: cell-based
[16] = test system: L6; test: Activation of AMPK in differentiated Sprague-Dawley rat L6 myotube cells assessed as glucose consumption at 5 uM after 12 hrs by colorimetric assay (reference value: 100 +/- 1.8%); type: cell-based
[17] = species on record: Rattus norvegicus; test: Activation of AMPK in Sprague-Dawley rat primary hepatocytes assessed as inhibition of gluconeogenesis by measuring glucose production after 6 hrs by colorimetric assay
[18] = species on record: Rattus norvegicus; test: Activation of AMPK in Sprague-Dawley rat primary hepatocytes assessed as inhibition of gluconeogenesis by measuring glucose production at 20 uM after 6 hrs by colorimetric assay (reference value: 100 +/- 3.5%); set-up: scale not given: the % may be the effect or the level left

Structure (SMILES)	Activity [1]	Activity [2]	Activity [3]	Activity [4]	Activity [5]	Activity [6]	Activity [7]	viability at 12 h, 10 µM [8]	fold change (FC) [9]	viability at 12 h, 5 µM [10]	viability at 12 h, 20 µM [11]	Activity [12]	Activity [13]	Activity [14]	Activity [15]	Activity [16]	inhibition [17]	Activity [18]
COc1ccc2cc3[n+](cc2c1OC)CCc1cc2c(cc1-3)OCO2 [BERBERINE CHLORIDE]	57.6%	85.8%	91.5%	Active	84.5%	228%	Active	100%	–	–	–	–	–	–	–	–	–	–
c1ccc(Cc2cc3c(s2)CC2c4cc5c(cc4CCN2C3)OCO5)cc1 (stereo not given)	59.5%	90.7%	98.2%	–	79.7%	242%	–	101%	2.4	102%	101%	48.2%	264%	Active	Active	194%	Dose-dependent effect	40.9%
CCCCc1cc2c(s1)CC1c3cc4c(cc3CCN1C2)OCO4 (stereo not given)	58.3%	68.9%	75.1%	–	57.5%	287%	–	98.8%	2.9	102%	97.7%	55.6%	285%	Active	Active	265%	Dose-dependent effect	53.7%
